Reference: patent US20240041042A1, “1-(PYRIDYL)-5-AZINYLPYRAZOLE DERIVATIVES, AND THEIR USE FOR CONTROL OF UNDESIRED PLANT GROWTH” (Bayer Aktiengesellschaft, priority 2020, published 2024)
Like-named read-outs stand apart in the source and are kept apart here.

Experiments:
Assay type in all cases: in vivo
[1] = system: Alopecurus myosuroides (ALOMY); assay: Post-emergence herbicidal action against ALOMY; settings: 320 g/ha, visual rating about 3 weeks after treatment vs untreated controls (100% = plants have died, 0% = like control plants)
In short: (§1)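 Greenhouse plants sprayed at the one-leaf stage, 2–3 weeks after sowing, with WP or EC formulations plus 0.5% additive at 600 l/ha water. Activity rated visually after about 3 weeks versus untreated controls (100% = dead, 0% = like control), at 320 g/ha or lower.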

[2] = system: Lolium rigidum (LOLRI); assay: Post-emergence herbicidal action against LOLRI
In short: as §1

[3] = system: Viola tricolor (VIOTR); assay: Post-emergence herbicidal action against VIOTR
In short: as §1

[4] = system: Verconica persica (VERPE); assay: Post-emergence herbicidal action against VERPE
In short: as §1

[5] = system: Abutilon theophrasti (ABUTH); assay: Post-emergence herbicidal action against ABUTH; settings: visual rating about 3 weeks after treatment vs untreated controls (100% = plants have died, 0% = like control plants)
In short: as §1

[6] = system: Oryza sativa (ORYSA); settings: crop plant compatibility
In short: (§2)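 Visual rating (% effect vs. untreated plants; 100% = plant death) made about 3 weeks after treatment. Plants had been sprayed at one-leaf stage, 2–3 weeks post-sowing, with aqueous WP/EC preparations containing 0.5% additive, 600 l/ha water volume; a, b, c mark dose levels.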

[7] = system: Zea mays (ZEAMX); settings: for Post-emergence action against ZEAMX in % (crop plant compatibility): 20 g/ha, effect in comparison to untreated controls; for Post-emergence action against ZEAMX in %: crop plant compatibility, effect vs untreated controls
In short: as §2

[8] = system: Triticum aestivum (TRZAS); settings: crop plant compatibility, effect vs untreated controls
In short: as §2

[9] = system: Amaranthus retroflexus (AMARE); assay: Post-emergence herbicidal action against AMARE; settings: 320 g/ha, visual rating about 3 weeks after treatment
In short: as §1

[10] = system: Echinochloa crus-galli (ECHCG); assay: Post-emergence herbicidal action against ECHCG
In short: as §1

[11] = system: Polygonum convolvulus (POLCO); assay: Post-emergence herbicidal action against POLCO
In short: as §1

[12] = system: Setaria viridis (SETVI); assay: Post-emergence herbicidal action against SETVI
In short: as §1

[13] = system: Pharbitis purpurea (PHBPU); assay: Post-emergence herbicidal action against PHBPU
In short: as §1

[14] = system: Verconica persica (VERPE); assay: Pre-emergence herbicidal action against VERPE; settings: dosage 320 g/ha
In short: (§3)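 Pre-emergence soil-surface spray of compound, formulated as wettable powder or emulsion concentrate, in aqueous suspension or emulsion with 0.5% additive (600 l/ha; rate 320 g/ha or less). Activity rated visually after roughly 3 weeks in the greenhouse as a percentage of untreated controls, 0% meaning no difference.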

[15] = system: Echinochloa crus-galli (ECHCG); assay: Pre-emergence herbicidal action against ECHCG; settings: dosage 320 g/ha
In short: as §3

[16] = system: Amaranthus retroflexus (AMARE); assay: Pre-emergence herbicidal action against AMARE; settings: 320 g/ha, visual scoring after about 3 weeks vs untreated controls
In short: as §3

[17] = system: Polygonum convolvulus (POLCO); assay: Pre-emergence herbicidal action against POLCO; settings: dosage 320 g/ha
In short: as §3

[18] = system: Viola tricolor (VIOTR); assay: Pre-emergence herbicidal action against VIOTR; settings: 320 g/ha, Viola tricolor
In short: as §3

[19] = system: Matricaria inodora (MATIN); assay: Post-emergence herbicidal action against MATIN; settings: dosage 320 g/ha
In short: as §1

[20] = system: Digitaria sanguinalis (DIGSA); assay: Post-emergence herbicidal action against DIGSA; settings: visual rating about 3 weeks after treatment
In short: as §1

[21] = system: Avena fatua (AVEFA); assay: Post-emergence herbicidal action against AVEFA; settings: visual rating about 3 weeks after treatment
In short: as §1

[22] = 20 g/ha, effect vs untreated controls
[23] = 80 g/ha, effect in comparison to untreated controls
[24] = 320 g/ha, effect in comparison to untreated controls

Compound | Post-emergence action against ALOMY in % [1] [%] | Post-emergence action against VIOTR in % ([3]; 80 g/ha) [%] | Post-emergence action against VIOTR in % ([3]; 320 g/ha) [%] | Post-emergence action against VERPE in % ([4]; 320 g/ha, VERPE) [%] | Post-emergence action against ABUTH in % ([5]; 320 g/ha) [%] | Post-emergence action against ORYSA in % [6, 22] [%] | Post-emergence action against ORYSA in % [6, 23] [%] | Post-emergence action against ORYSA in % [6, 24] [%] | Post-emergence action against ZEAMX in % (crop plant compatibility) [7] [%] | Post-emergence action against ZEAMX in % ([7]; 80 g/ha) [%] | Post-emergence action against ZEAMX in % ([7]; 320 g/ha) [%] | Post-emergence action against TRZAS in % ([8]; 20 g/ha) [%] | Post-emergence action against TRZAS in % ([8]; 80 g/ha) [%] | Post-emergence action against AMARE in % [9] [%] | Post-emergence action against ECHCG in % ([10]; dosage 320 g/ha) [%] | Post-emergence action against POLCO in % ([11]; dosage 320 g/ha) [%] | Post-emergence action against SETVI in % ([12]; dosage 320 g/ha) [%] | Post-emergence action against PHBPU in % ([13]; dosage 320 g/ha) [%] | Post-emergence action against VERPE in % ([4]; dosage 80 g/ha) [%] | Post-emergence action against AVEFA in % ([21]; 320 g/ha) [%] | other results
CCOC(=O)COc1nn(-c2ncccc2F)c(-c2ccnc(F)c2)c1I [Example I-137] | 80 | 80 | 80 | 80 | 80 | 0 | 10 | 20 | 0 | 0 | 20 | 20 | 20 | 80 | 80 | 80 |  |  |  |  | Post-emergence action against LOLRI in % ([2]; dosage 320 g/ha): 90%; Post-emergence action against POLCO in % ([11]; dosage 80 g/ha): 80%
COC(=O)[C@@H](C)Oc1nn(-c2ncccc2F)c(-c2ccnc(F)c2)c1I [Example I-138] |  | 80 | 80 | 80 | 80 | 0 | 0 | 20 | 20 | 20 |  | 10 |  |  | 90 | 80 | 80 | 80 |  |  | Post-emergence action against LOLRI in % ([2]; dosage 320 g/ha): 90%
COC(=O)CNC(=O)COc1nn(-c2ncccc2C(F)(F)F)c(-c2cncc(F)c2)c1Br [Example I-205] |  |  |  |  |  |  | 0 | 10 |  | 0 | 0 |  | 10 |  |  |  |  |  |  |  | Pre-emergence action against VERPE in % [14]: 100%; Pre-emergence action against ECHCG in % [15]: 80%; Pre-emergence action against AMARE in % [16]: 80%; Post-emergence action against TRZAS in % ([8]; 320 g/ha): 10%; Pre-emergence action against POLCO in % [17]: 80%; Pre-emergence action against VIOTR in % [18]: 100%
COC(=O)CCOC(=O)COc1nn(-c2ccccn2)c(-c2ccc(F)nc2)c1C1CC1(F)F (centres unmarked) [Example I-248] |  | 80 | 80 | 80 |  |  |  |  | 0 | 0 |  | 0 | 0 |  |  |  |  | 90 |  |  | 
O=C(O)COc1nn(-c2ccccn2)c(-c2ccc(F)nc2)c1C1CC1(F)F (centres unmarked) [Example I-249] |  | 80 | 80 | 80 | 80 |  |  |  | 0 | 20 |  | 0 | 0 |  |  |  |  |  |  |  | Post-emergence action against TRZAS in % ([8]; 320 g/ha): 0%
COC(=O)C(C)COC(=O)COc1nn(-c2ncccc2C(F)(F)F)c(-c2ccc(F)nc2)c1C1CC1(F)F (centres unmarked) [Example I-268] |  | 80 | 80 | 80 | 80 |  |  |  | 0 | 0 |  | 0 | 0 |  |  |  |  | 80 |  |  | 
CC(C)=NOC(=O)COc1nn(-c2ncccc2F)c(-c2ccc(F)nc2)c1C1CC1 [Example I-366] | 90 | 80 | 90 | 90 | 90 | 0 | 20 |  | 10 |  |  |  |  | 80 | 90 | 80 | 90 | 80 | 80 | 90 | Post-emergence action against SETVI in % ([12]; dosage 80 g/ha): 90%; Post-emergence action against LOLRI in % ([2]; dosage 80 g/ha): 90%; Post-emergence action against LOLRI in % ([2]; dosage 320 g/ha): 90%; Post-emergence action against MATIN in % [19]: 80%; Post-emergence action against ABUTH in % ([5]; 80 g/ha): 80%; Post-emergence action against DIGSA in % ([20]; 80 g/ha): 80%; Post-emergence action against DIGSA in % ([20]; 320 g/ha): 90%; Post-emergence action against ECHCG in % ([10]; dosage 80 g/ha): 90%; Post-emergence action against AVEFA in % ([21]; 80 g/ha): 90%; Post-emergence action against PHBPU in % ([13]; dosage 80 g/ha): 80%
CCOC(=O)COc1nn(-c2ccccn2)c(-c2ccc(F)nc2)c1C1CC1(F)F (centres unmarked) [Example I-387] |  |  |  |  |  |  |  |  | 0 | 0 | 0 | 0 | 0 |  |  |  |  |  |  |  | Post-emergence action against TRZAS in % ([8]; 320 g/ha): 0%
Cc1ncccc1-n1nc(OCC(=O)O)c(Br)c1-c1cncc(F)c1 [II-38] | 100 | 90 | 90 | 90 | 80 | 0 | 0 | 0 | 0 | 0 | 0 | 0 | 10 | 80 | 90 | 90 | 90 | 80 | 80 | 90 | 
Cc1ncccc1-n1nc(OCC(=O)OCc2ccccn2)c(Br)c1-c1cncc(F)c1 [II-39] | 90 | 80 | 90 | 90 | 80 | 0 | 0 | 0 | 0 | 0 | 20 | 0 | 20 | 80 | 90 |  | 90 | 90 | 80 | 90 | 
COCCOC(=O)COc1nn(-c2cccnc2C)c(-c2cncc(F)c2)c1Br [II-40] | 90 | 90 | 90 | 90 | 80 | 0 | 0 | 0 | 0 | 0 | 10 | 0 | 20 | 80 | 90 | 80 | 90 | 80 | 80 | 90 | Post-emergence action against POLCO in % ([11]; dosage 80 g/ha): 80%
CCOC(=O)COc1nn(-c2cccnc2C)c(-c2ccc(F)nc2)c1Br [II-46] | 80 |  | 90 | 90 |  | 0 | 0 | 0 | 0 | 0 | 20 | 0 | 0 |  |  | 80 |  |  |  |  | 
